{"source": "patent US20250312339A1", "about": "“METHODS AND COMPOSITIONS COMPRISING A SHP2 INHIBITOR AND A PD-LI BINDING ANTAGONIST” (Genentech, Inc., priority 2022, published 2025)", "key": {"recombinant human SHP2": {"molecular_target": "T1, recombinant human SHP2 (Homo sapiens, UniProt Q06124)", "T1 sequence (Q06124 1-593)": "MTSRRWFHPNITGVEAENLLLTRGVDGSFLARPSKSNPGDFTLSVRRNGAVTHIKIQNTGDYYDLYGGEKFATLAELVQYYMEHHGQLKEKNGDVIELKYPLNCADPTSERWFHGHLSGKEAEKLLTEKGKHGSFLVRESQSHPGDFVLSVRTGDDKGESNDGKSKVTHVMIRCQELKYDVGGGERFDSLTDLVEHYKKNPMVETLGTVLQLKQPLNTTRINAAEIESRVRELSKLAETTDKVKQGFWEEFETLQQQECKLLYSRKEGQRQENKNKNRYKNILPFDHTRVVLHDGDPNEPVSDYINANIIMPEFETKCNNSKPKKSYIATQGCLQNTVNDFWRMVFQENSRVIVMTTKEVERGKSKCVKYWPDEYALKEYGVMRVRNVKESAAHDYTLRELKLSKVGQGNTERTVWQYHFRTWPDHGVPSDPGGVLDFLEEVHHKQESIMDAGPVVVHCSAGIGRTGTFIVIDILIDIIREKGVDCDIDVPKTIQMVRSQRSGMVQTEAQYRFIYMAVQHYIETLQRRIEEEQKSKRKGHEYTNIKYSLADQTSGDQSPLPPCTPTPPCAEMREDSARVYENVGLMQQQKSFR", "experiment": "Inhibition of recombinant human SHP2", "assay_type": "biochemical", "details": "allosteric inhibitor", "protocol": "(§1) Compound 1 is a potent allosteric inhibitor of recombinant human SHP2, with inhibitory concentration of 50% (IC50) of 0.7 nM. It has been characterized in numerous nonclinical cancer models."}, "EMT6 mammary carcinoma": {"tested_on": "EMT6 mammary carcinoma", "experiment": "Anti-tumor efficacy, EMT6 mammary carcinoma in BALB/c mice", "assay_type": "in vivo", "protocol": "Agents. Compound 1 was formulated in 50 mM Sodium Citrate buffer, pH3.0 at a concentration of […]. Anti-PD-L1 mAbs (Mu IgG2a anti-PD-L1, hereafter referred to as anti-PD-L1) and anti-gp120 isotype control (Mu IgG1 anti-gp120; hereafter referred to as Isotype Control) were formulated as a solution in buffer of 20 mM Histidine Acetate, 240 mM Sucrose, 0.02% Tween 20™, pH 5.5. An oral-dosed vehicle control was 50 mM Sodium Citrate buffer, pH3.0.\nCell Lines. The EMT6 mammary carcinoma cell line was cultured in vitro, harvested in log-phase growth, and resuspended in Hank's Balanced Salt Solution (HBSS) containing Matrigel™ (BD Biosciences; San Jose, CA) at a 1:1 ratio by volume for in vivo inoculation. Animals were each inoculated with 0.1×10^6 cells in the mammary gland (5, left) in a volume of […].\nMice tumor models. 10.6 weeks old Balb/c mice bearing tumors in the range of 141-196 mm^3 were evenly distributed into 4 study groups of 10 mice each. The mean tumor volume across all groups was 165 mm^3 at the start of dosing. The mean starting weight was 19.94 g. All concentrations were calculated based on a mean body weight of 20 g and adjusted for 10% body weight loss or gain. Mice in the various groups received the treatment regimens described in Table 1. Mice were dosed for a total of 28 days or until euthanized at first sign of morbidity or if body weight loss was >20% of their weight at the start of administration.\nThe study extended beyond 28 days and following the cessation of treatment to check for the durability of response and ended at day 102 wherein remaining mice were all euthanized.\nTumor and Body Weight Measurements. Tumor volumes were measured in two perpendicular dimensions (length and width) using Ultra Cal-IV calipers (model 54-10-111; Fred V. Fowler Co.; Newton, MA) and tumor volume was calculated according to the following formula: […]\nTumors that regressed by >50% relative to their starting volume during the study were categorized as partial responders (PRs) while tumors with a final tumor volume corresponding to full regression were categorized as complete responders (CRs). Animal body weights were measured using an Adventura Pro AV812 scale (Ohaus Corporation; Pine Brook, NJ) and percent change in body weight for each group was calculated and plotted (see FIG. 4). Percent weight change was calculated using the following formula: […]\nGrowth analysis and group comparisons. […] Analyses and comparisons of tumor growth were performed using a package of customized functions in R (Version 3.6.2); R Foundation for Statistical Computing; Vienna, Austria, which integrates software from open source packages (e.g., lme4, mgcv, gamm4, multcomp, settings, and plyr) and several packages from tidyverse (e.g., magrittr, dplyr, tidyr, and ggplot2) (Forrest et al.; Cancer Res 2020; 80(22):5089-97). All raw tumor volume measurements from 0 (minimum) to 8 mm^3 (maximum value) were judged to reflect complete tumor absence and were converted to 8 mm^3 prior to natural log transformation. A generalized additive mixed model (GAMM) was then applied to describe the changes in transformed tumor volumes over time using regression splines with automatically generated spline bases. This approach addresses both repeated measurements from the same study subjects and moderate dropouts before the end of the study. […]"}, "EMT6 mammary tumors": {"tested_on": "EMT6 mammary tumors", "experiment": "Tumor immuno-profiling by flow cytometry after 7 days of treatment", "assay_type": "in vivo, mice", "protocol": "Tumor Immuno-profiling. Anti-tumor immunity was evaluated in EMT6 mammary tumors by flow cytometric immuno-profiling of tumor cells and tumor-infiltrating immune cells the tumor after 7-days of treatment with either vehicle and isotype control antibodies, single agent Compound 1 (60 mg/kg, PO, QD), anti-PD-L1 antibodies (10 mg/kg, IV, first dose, then 5 mg/kg, IP, twice per week), or the combination with of Compound 1 and anti-PD-L1.\nThe activation status of the TILs was assessed by assessing the expression of cytokines and effector molecules, including interferon gamma (IFNg), tumor necrosis factor alpha (TNFa) and granzyme B (GZMB) from tumor-derived T cells under restimulation conditions using PMA/ionomycin (FIG. 6A). […] There was also an increase of the frequency of CD8+ T cells expressing GZMB in tumors from mice treated with Compound 1 and anti-PD-L1 relative to the vehicle group (p=0.0137). (FIG. 6A). The polyfunctionality of tumor-infiltrating CD8^+ T cells (expressing IFNg and TNFa) was increased when mice were treated with Compound 1 alone or in combination with anti-PD-L1 antibodies relative to the vehicle group (p=0.0008 and p=0.0011, respectively). Markers of T cell activation and exhaustion were also assessed to determine if SHP2 inhibition by Compound 1 alone or in combination with anti-PD-L1 antibodies altered the phenotype of CD8+ T cells in the tumor."}, "[1]": {"experiment": "Nonclinical safety studies", "assay_type": "in vivo", "text": "Risks associated with MAPK-Pathway Class Inhibitors. Administration of MAPK-pathway inhibitors has been associated with cardiomyopathy, retinopathy, Cardiomyopathy, CPK increase, thromboembolic events, Phototoxicity, and Reproductive Toxicity."}, "[2]": {"tested_on": "panel of kinases, receptors, ion channels, and transporters", "experiment": "Selectivity panel", "protocol": "as §1"}, "[3]": {"experiment": "Anti-proliferative effect in cancer cell lines, 2D and anchorage-independent 3D formats", "assay_type": "cell-based", "details": "numerous cell lines, 2D or 3D assays; read-out: IC50, proliferation", "text": "The anti-proliferative effect of Compound 1 has been assessed in multiple cancer cell lines using 2D and anchorage-independent 3D formats."}, "[4]": {"tested_on": "EGFR-amplified esophageal squamous cell carcinoma (KYSE-520)", "experiment": "Human tumor xenograft model, EGFR-amplified esophageal squamous cell carcinoma", "assay_type": "in vivo", "details": "oral administration, single agent", "text": "(§2) Compound 1 has also been tested for in vivo anti-tumor activity in multiple xenograft models."}, "[5]": {"tested_on": "KRAS-mutant NSCLC (NCI-H358)", "experiment": "Human tumor xenograft model, KRAS-mutant NSCLC", "assay_type": "in vivo", "details": "oral administration, single agent", "text": "as §2"}, "[6]": {"experiment": "Events associated with administration of Compound 1", "assay_type": "in vivo", "details": "reversible and monitorable events", "text": "Risks Associated with Compound 1."}, "[7]": {"tested_on": "SHP2 (ERKT/2 phosphorylation at Thr202/Tyr204) in EGFR-amplified KYSE-520 cells", "experiment": "SHP2 inhibition in cells by level of ERK phosphorylation", "assay_type": "cell-based", "details": "Homo sapiens", "protocol": "as §1"}, "[8]": {"details": "in vivo; cited from earlier work"}, "Fc receptors": {"tested_on": "Fc receptors", "details": "cited from earlier work"}}, "note": "“Also recorded” adds a separate entry of the source.", "data": [{"compound": "N[C@@H]1c2ccccc2OC12CCN(c1cnc3c(N4CCCc5ncccc54)n[nH]c3n1)CC2", "note": "[Compound 1, (R)-1′-(3-(3,4-dihydro-1,5-naphthyridin-1(2H)-yl)-1H-pyrazolo[3,4-b]pyrazin-6-yl)-3H-spiro[benzofuran-2,4′-piperidin]-3-amine]", "values": [{"measurement": "IC50", "setting": "recombinant human SHP2", "result": 0.7, "unit": "nM"}, {"measurement": "Legacy % TGI", "setting": "EMT6 mammary carcinoma; AUC-based, relative to vehicle controls, Compound 1 60 mg/kg PO QD, anti-PD-L1 10 mg/kg IV then 5 mg/kg IP twice weekly", "result": 47, "unit": "%"}, {"measurement": "Anti-tumor efficacy (in words)", "setting": "EMT6 mammary carcinoma; EMT6 syngeneic tumor model, Compound 1 60 mg/kg QD", "result": "no efficacy"}, {"measurement": "EOS CR (complete responders at end of study)", "setting": "EMT6 mammary carcinoma; end of study day 102, after cessation of 28-day dosing, 10 mice per group", "result": "0 (0.0%)"}, {"measurement": "Growth Contrast, LN (GR)", "setting": "EMT6 mammary carcinoma; relative to vehicle controls, Compound 1 60 mg/kg PO QD, anti-PD-L1 10 mg/kg IV first dose then 5 mg/kg IP twice weekly", "result": "−0.033", "unit": "LN"}, {"measurement": "PR (partial responders)", "setting": "EMT6 mammary carcinoma; tumors regressed by >50% relative to starting volume, 10 mice per group", "result": "0 (0.0%)"}, {"measurement": "IFNg expression on tumor-derived CD8+ T cells", "setting": "EMT6 mammary tumors; PMA/ionomycin restimulation, vs vehicle, p=0.0002 (Compound 1), p=0.0001 (combination)", "result": "increase"}, {"measurement": "TNFa expression on tumor-derived CD8+ T cells", "setting": "EMT6 mammary tumors; PMA/ionomycin restimulation, vs vehicle, p=0.0016 (Compound 1), p=0.0035 (combination)", "result": "increase"}, {"measurement": "MFI of PD-L1 expression on tumor cells (CD45 negative)", "setting": "EMT6 mammary tumors; vs vehicle group, 7 days, p=0.0127 (Compound 1), p=0.0018 (combination)", "result": "significant increase"}, {"measurement": "MFI of MHC-I expression on tumor cells (CD45 negative)", "setting": "EMT6 mammary tumors; vs vehicle group, 7 days, p=0.0354 (Compound 1), p=0.0044 (combination)", "result": "significant increase"}, {"measurement": "Polyfunctionality of tumor-infiltrating CD8+ T cells (co-expression of IFNg and TNFa)", "setting": "EMT6 mammary tumors; vs vehicle group, p=0.0008 (Compound 1), p=0.0011 (combination)", "result": "increase"}, {"measurement": "Frequency of M1 population of macrophages", "setting": "EMT6 mammary tumors; vs vehicle group, p=0.0033 (Compound 1), p=0.0162 (combination)", "result": "increase"}, {"measurement": "M2 population of macrophages", "setting": "EMT6 mammary tumors; vs vehicle group, p=0.0036 (Compound 1), p=0.0007 (combination)", "result": "decrease"}, {"measurement": "Frequency of CD8 T cell population in tumor microenvironment", "setting": "EMT6 mammary tumors; vs vehicle group, p=0.0058 (Compound 1), p=0.008 (combination)", "result": "increase"}, {"measurement": "Frequency of MDSCs in tumor", "setting": "EMT6 mammary tumors; vs vehicle group, p=0.0058 (Compound 1), p=0.0083 (combination)", "result": "reduction; also recorded: reduced"}, {"measurement": "Frequency of CD4 T cell population in tumor microenvironment", "setting": "EMT6 mammary tumors; vs vehicle group, p=0.0067 (Compound 1), p=0.002 (combination)", "result": "increase"}, {"measurement": "Frequency of TAMs in tumor", "setting": "EMT6 mammary tumors; vs vehicle group, p=0.0072 (Compound 1), p=0.0098 (combination)", "result": "reduction; also recorded: reduced"}, {"measurement": "Frequency of NK cells in tumor microenvironment", "setting": "EMT6 mammary tumors; vs vehicle group, p=0.013 (Compound 1), p=0.024 (combination)", "result": "increase"}, {"measurement": "Nonclinical toxicity findings", "setting": "[1]", "result": "did not show evidence of cardiac, pulmonary, renal, thromboembolic, or ophthalmic toxicities"}, {"measurement": "Selectivity against panel", "setting": "[2]", "result": "selectively inhibits SHP2"}, {"measurement": "IC50", "setting": "[3]", "result": "< 1", "unit": "nM"}, {"measurement": "Anti-tumor efficacy, KYSE-520 xenograft", "setting": "[4]", "result": "significant anti-tumor efficacy"}, {"measurement": "Anti-tumor efficacy, NCI-H358 xenograft", "setting": "[5]", "result": "significant anti-tumor efficacy"}, {"measurement": "Events associated with administration", "setting": "[6]", "result": "Peripheral Edema, Myelosuppression (e.g., Thrombocytopenia, Anemia), Gastrointestinal Toxicities (e.g., Diarrhea, Nausea, and Vomiting), Elevation of Hepatic Transaminase, and Rash"}, {"measurement": "IC50", "setting": "[7]", "result": 1.3, "unit": "nM"}]}, {"compound": "Atezolizumab: Fc-engineered, humanized, non-glycosylated IgG1 kappa immunoglobulin that binds PD-L1 (SEQ ID NO: 1 and 2)", "values": [{"measurement": "Tolerability", "setting": "[8]", "result": "generally well tolerated"}, {"measurement": "Binding to Fc receptors", "setting": "Fc receptors", "result": "minimal binding to Fc receptors"}]}]}
